# System: MRC-5 cells
# Assay: Cell migration, invasion and wound-healing assay
# Type: cell-based, human
# Conditions: MRC-5 cells stimulated by TGF-β1, peptide 50 µM, 24 h transwell, 48 h wound closure, n = 3
# Method: For wound healing, cell monolayers were scratched with pipette tip. Cells were incubated with or without 10 ng ml^−1 recombinant human TGF‐β1. Ac‐GFFY‐A2 (50 µM) or A2 (50 µM) was added to the medium 1 h behind to TGF‐β1 stimulation. Images were captured at 0 and 48 h after scratching, and the lesion area was measured with Image J software. Cell invasion assay was performed using transwell chambers (8‐µm pore size, Millipore). Chambers were pre‐coated with Matrigel (30 µg per well, BD). Cells were seeded into the chamber with MEM supplemented with 0.1% FBS, and the lower well was added MEM supplemented with 20% FBS. After incubated for 24 h, non‐invaded cells on the upside were removed with cotton swap, and invaded cells were fixed with 4% paraformaldehyde, stained with 0.5% crystal violet, and then photographed under a microscope. The crystal violet stain was eluted in alcohol and quantified at OD540 nm. […]
# MRC-5 cells were seeded on a 6-well plate at a density of 6×10^4 cells per well then cultured for 12 hours to adhere the walls. […] The cells were collected and centrifuged, finally the cellular uptake was measured by flow cytometry. […]
# Images were captured at 0 h and 48 h after scratching, and the lesion area was measured with Image J software. […] The crystal violet stain was eluted in alcohol and quantified at OD540 nm. […]
substance,measurement,value
Ac-GFFYGGWLTRLLQTK-OH [Ac-GFFY-A2],rate of migration and invasion,decline in the rate of migration and invasion

# — PMC11267363, “Supramolecular Nanofibers Ameliorate Bleomycin‐Induced Pulmonary Fibrosis by Restoring Autophagy” (Advanced Science, 2024)
